Assay results as given in patent US20250101041A1, “POSITIVE ALLOSTERIC MODULATORS OF THE MUSCARINIC ACETYLCHOLINE RECEPTOR M4” (Vanderbilt University, priority 2022, published 2025).

Biological target: T1, human mAChR M4 (Homo sapiens, UniProt P08173)
T1 construct: expressed in transfected cells; host or cells: CHO-K1 (American Type Culture Collection), stably expressing hM4 and Gqi5
T1 sequence (P08173 1-479): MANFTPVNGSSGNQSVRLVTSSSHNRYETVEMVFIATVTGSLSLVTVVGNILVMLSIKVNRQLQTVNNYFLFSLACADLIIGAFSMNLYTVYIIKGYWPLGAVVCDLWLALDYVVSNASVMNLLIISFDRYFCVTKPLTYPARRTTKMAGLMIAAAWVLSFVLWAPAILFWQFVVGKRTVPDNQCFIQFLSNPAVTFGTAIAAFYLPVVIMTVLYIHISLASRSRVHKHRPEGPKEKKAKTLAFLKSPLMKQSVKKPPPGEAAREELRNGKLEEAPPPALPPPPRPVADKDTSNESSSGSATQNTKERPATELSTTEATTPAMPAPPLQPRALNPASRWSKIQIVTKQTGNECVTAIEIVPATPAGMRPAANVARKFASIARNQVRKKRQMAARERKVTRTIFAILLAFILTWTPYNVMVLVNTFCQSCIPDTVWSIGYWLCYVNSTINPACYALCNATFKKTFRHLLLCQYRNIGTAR
Assay: mAChR M4 cell-based functional assay: calcium mobilization (Fluo-4, FDSS), potentiation of EC20 acetylcholine response in hM4-Gqi5 CHO-K1 cells
Details: human M4; for Emax at 30 µM: CHO-K1, % ACh maximum at 30 μM; for EC50: potentiation of EC20 acetylcholine response, calcium mobilization
Experimental: Human and rat M4 cDNAs, along with the chimeric G protein Gqi5, were transfected into Chinese hamster ovary (CHO-K1) cells purchased from the American Type Culture Collection using Lipofectamine2000. hM4-Gqi5 cells were grown in Ham's F-12 medium containing 10% heat-inactivated fetal bovine serum (FBS), 20 mM HEPES, 50 μg/mL G418 sulfate, and 500 μg/mL Hygromycin B. rM4-Gqi5 cells were grown in DMEM containing 10% heat-inactivated FBS, 20 mM HEPES, 400 μg/mL G418 sulfate, and 500 μg/mL Hygromycin B.
For high throughput measurement of agonist-evoked increases in intracellular calcium, CHO-K1 cells stably expressing muscarinic receptors were plated in growth medium lacking G418 and hygromycin at 15,000 cells/20 μL/well in Greiner 384-well black-walled, tissue culture (TC)-treated, clear-bottom plates (VWR). Cells were incubated overnight at 37° C. and 5% CO2. The next day, cells were washed using an ELX 405 (BioTek) with assay buffer; the final volume was then aspirated to 20 μL. Next, 20 μL of a […] of Fluo-4/acetoxymethyl ester (Invitrogen, Carlsbad, CA), prepared as a 2.3 mM stock in DMSO and mixed in a 1:1 ratio with 10% (w/v) Pluronic F-127 and diluted in assay buffer, was added to the wells and the cell plates were incubated for 50 min at 37° C. and 5% CO2. Dye was removed by washing with the ELX 405 and the final volume was aspirated to 20 μL. Compound master plates were formatted in an 11 point concentration-response curve (CRC) format (1:3 dilutions) in 100% DMSO with a starting concentration of 10 mM using a BRAVO liquid handler (Agilent). Test compound CRCs were then transferred to daughter plates (240 nL) using the Echo acoustic plate reformatter (Labcyte, Sunnyvale, CA) and then diluted into assay buffer (40 μL) to a 2× stock using a Thermo Fisher Combi (Thermo Fisher Scientific, Waltham, MA).
Calcium flux was measured using the Functional Drug Screening System (FDSS) 6000 or 7000 (Hamamatsu Corporation, Tokyo, Japan) as an increase in the fluorescent static ratio. Compounds were applied to cells (20 μL, 2X) using the automated system of the FDSS at 2-4 seconds into the protocol and the data were collected at 1 Hz. At 144 seconds, 10 μL of an EC20 concentration of the muscarinic receptor agonist acetylcholine was added (5×), followed by the addition of 12 μL of an […] concentration of acetylcholine at the 230 second time point (5×). Agonist activity was analyzed as a concentration-dependent increase in calcium mobilization upon compound addition. Positive allosteric modulator activity was analyzed as a concentration-dependent increase in the EC20 acetylcholine response. Antagonist activity was analyzed as a concentration-dependent decrease in the EC20 acetylcholine response. Concentration-response curves were generated using a four-parameter logistical equation in XLFit curve fitting software (IDBS, Bridgewater, NJ) for Excel (Microsoft, Redmond, WA) or Prism (GraphPad Software, Inc., San Diego, CA).
Compounds were synthesized as described above. Activity (EC50 and Emax) was determined in the mAChR M4 cell-based functional assay as described above and the data are shown in Table 4. The compound number corresponds to the compound numbers used in Tables 1-3.

SMILES | Emax at 30 µM [%] | EC50 [nM]
Cc1cc(=O)n2nc(N3CCc4ncc(-c5ccc(C(F)(F)F)nc5)cc4C3)c(C)cc2n1 [Compound 1-73, 2,8-dimethyl-7-(3-(6-(trifluoromethyl)pyridin-3-yl)-7,8-dihydro-1,6-naphthyridin-6(5H)-yl)-4H-pyrimido[1,2-b]pyridazin-4-one] | 77 | 457
Cc1cc2nccc(=O)n2nc1N1CCc2ncc(-c3cn(C)nc3C(F)(F)F)cc2C1 [Compound 1-411, 8-methyl-7-(3-(1-methyl-3-(trifluoromethyl)-1H-pyrazol-4-yl)-7,8-dihydro-1,6-naphthyridin-6(5H)-yl)-4H-pyrimido[1,2-b]pyridazin-4-one] | 82 | 1240
Cc1c(C2CC2)c(N2CCc3ncc(C(F)(F)F)cc3C2)nn2c(=O)ccnc12 [Compound 1-111, 8-cyclopropyl-9-methyl-7-(3-(trifluoromethyl)-7,8-dihydro-1,6-naphthyridin-6(5H)-yl)-4H-pyrimido[1,2-b]pyridazin-4-one] | 61 | 2450
COCc1cc(=O)n2nc(N3CCc4ncc(-c5cnn6c5COCC6)cc4C3)c(C)c(C)c2n1 [Compound 1-380, 7-(3-(6,7-dihydro-4H-pyrazolo[5,1-c][1,4]oxazin-3-yl)-7,8-dihydro-1,6-naphthyridin-6(5H)-yl)-2-(methoxymethyl)-8,9-dimethyl-4H-pyrimido[1,2-b] pyridazin-4-one] | 95 | 205
COCc1c(N2CCc3ncc(C(F)(F)F)cc3C2)nn2c(=O)ccnc2c1C [Compound 1-270, 8-(methoxymethyl)-9-methyl-7-(3-(trifluoromethyl)-7,8-dihydro-1,6-naphthyridin-6(5H)-yl)-4H-pyrimido[1,2-b]pyridazin-4-one] | 95 | 33
Cc1cc(=O)n2nc(N3CCc4ncc(-c5cc(F)cc(F)c5F)cc4C3)c(C)cc2n1 [Compound 1-253, 2,8-dimethyl-7-(3-(2,3,5-trifluorophenyl)-7,8-dihydro-1,6-naphthyridin-6(5H)-yl)-4H-pyrimido[1,2-b] pyridazin-4-one] | 54 | 2330
Cc1ccc(-c2cnc3c(c2)CN(c2nn4c(=O)cc(C)nc4cc2C)CC3)cn1 [Compound 1-30, 2,8-dimethyl-7-(3-(6-methylpyridin-3-yl)-7,8-dihydro-1,6-naphthyridin-6(5H)-yl)-4H-pyrimido[1,2-b]pyridazin-4-one] | 69 | 127
Cc1cc2nccc(=O)n2nc1N1CCc2ncc(-c3cn(C)nc3C)cc2C1 [Compound 1-2, 7-(3-(1,3-dimethyl-1H-pyrazol-4-yl)-7,8-dihydro-1,6-naphthyridin-6(5H)-yl)-8-methyl-4H-pyrimido[1,2-b]pyridazin-4-one] | 87 | 501
Cc1ccncc1-c1cnc2c(c1)CN(c1nn3c(=O)ccnc3cc1C)CC2 [Compound 1-403, 8-methyl-7-(3-(4-methylpyridin-3-yl)-7,8-dihydro-1,6-naphthyridin-6(5H)-yl)-4H-pyrimido[1,2-b] pyridazin-4-one] | 86 | 112
Cc1cc(=O)n2nc(N3CCc4ncc(-c5ccc(C6CC6)nc5)cc4C3)c(C)c(C)c2n1 [Compound 1-128, 7-(3-(6-cyclopropylpyridin-3-yl)-7,8-dihydro-1,6-naphthyridin-6(5H)-yl)-2,8,9-trimethyl-4H-pyrimido[1,2-b]pyridazin-4-one] | 80 | 768
Cc1nc(-c2cnc3c(c2)CN(c2nn4c(=O)ccnc4cc2C)CC3)cs1 [Compound 1-389, 8-methyl-7-(3-(2-methylthiazol-4-yl)-7,8-dihydro-1,6-naphthyridin-6(5H)-yl)-4H-pyrimido[1,2-b] pyridazin-4-one] | 63 | 271
COCc1cc(=O)n2nc(N3CCc4ncc(-c5ccnc(C)c5)cc4C3)c(C)cc2n1 [Compound 1-361, 2-(methoxymethyl)-8-methyl-7-(3-(2-methylpyridin-4-yl)-7,8-dihydro-1,6-naphthyridin-6(5H)-yl)-4H-pyrimido[1,2-b] pyridazin-4-one] | 82 | 351
Cc1ccc(F)cc1-c1cnc2c(c1)CN(c1nn3c(=O)cc(C(F)F)nc3c(C)c1C)CC2 [Compound 1-171, 2-(difluoromethyl)-7-(3-(5-fluoro-2-methylphenyl)-7,8-dihydro-1,6-naphthyridin-6(5H)-yl)-8,9-dimethyl-4H-pyrimido[1,2-b]pyridazin-4-one] | 91 | 429
Cc1cc(=O)n2nc(N3CCc4ncc(-c5cnc(F)cc5C)cc4C3)c(C)cc2n1 [Compound 1-209, 7-(3-(6-fluoro-4-methylpyridin-3-yl)-7,8-dihydro-1,6-naphthyridin-6(5H)-yl)-2,8-dimethyl-4H-pyrimido[1,2-b]pyridazin-4-one] | 88 | 266

More lines, now with the values ahead:

Emax at 30 µM [%] | EC50 [nM] | SMILES
59 | 639 | Cc1nc(-c2cccc(Nc3cnc4c(c3)CN(c3nn5c(=O)ccnc5cc3C)CC4)c2)cs1 [Compound 2-83, 8-methyl-7-(3-((3-(2-methylthiazol-4-yl)phenyl)amino)-7,8-dihydro-1,6-naphthyridin-6(5H)-yl)-4H-pyrimido[1,2-b]pyridazin-4-one]
87 | 105 | Cc1cc2nc(C(F)F)cc(=O)n2nc1N1CCc2ncc(-n3cccn3)cc2C1 [Compound 2-26, 7-(3-(1H-pyrazol-1-yl)-7,8-dihydro-1,6-naphthyridin-6(5H)-yl)-2-(difluoromethyl)-8-methyl-4H-pyrimido[1,2-b]pyridazin-4-one]
81 | 1340 | Cc1cc(=O)n2nc(N3CCc4ncc(N5CC6CC5CO6)cc4C3)c(C)c(C)c2n1 (stereo not shown) [Compound 2-37, 7-(3-(2-oxa-5-azabicyclo[2.2.1]heptan-5-yl)-7,8-dihydro-1,6-naphthyridin-6(5H)-yl)-2,8,9-trimethyl-4H-pyrimido[1,2-b]pyridazin-4-one]
96 | 822 | Cc1c(N2CCc3ncc(N4C[C@@H](C)O[C@@H](C)C4)cc3C2)nn2c(=O)cc(C(F)F)nc2c1C [Compound 2-41, 2-(difluoromethyl)-7-(3-((2R,6S)-2,6-dimethylmorpholino)-7,8-dihydro-1,6-naphthyridin-6(5H)-yl)-8,9-dimethyl-4H-pyrimido[1,2-b]pyridazin-4-one]
90 | 209 | Cc1cc2nc(C(F)F)cc(=O)n2nc1N1CCc2ncc(N3CCO[C@H](C)C3)cc2C1 [Compound 2-25, (R)-2-(difluoromethyl)-8-methyl-7-(3-(2-methylmorpholino)-7,8-dihydro-1,6-naphthyridin-6(5H)-yl)-4H-pyrimido[1,2-b]pyridazin-4-one]
65 | 611 | Cc1cc(=O)n2nc(N3CCc4ncc(NCC5CCCOC5)cc4C3)c(C)c(C)c2n1 (stereo not shown) [Compound 2-44, 2,8,9-trimethyl-7-(3-(((tetrahydro-2H-pyran-3-yl)methyl)amino)-7,8-dihydro-1,6-naphthyridin-6(5H)-yl)-4H-pyrimido[1,2-b]pyridazin-4-one]
